Source: ChEMBL document CHEMBL5036313, “Discovery of Novel, Potent Inhibitors of Hydroxy Acid Oxidase 1 (HAO1) Using DNA-Encoded Chemical Library Screening” (J Med Chem, 2021)
In brackets after ≈: the same amount, converted by molar mass.

Legend:
[1] = Metabolic stability in human liver microsomes assessed as intrinsic clearance; assay type: ADME, Microsome; conditions: read-out: CLH
[2] = Kinetic solubility of the compound at pH 2; assay type: physicochemical; conditions: buffer, read-out: Kinetic_solubility
[3] = Metabolic stability in mouse liver microsomes assessed as intrinsic clearance; assay type: ADME, Microsome; conditions: read-out: CLH
[4] = Kinetic solubility of the compound at pH 7.4; assay type: physicochemical; conditions: buffer, read-out: Kinetic_solubility
[5] = Unbound intrinsic clearance in CD1 mouse plasma at 0.3 mg/kg, iv measured upto 8 hrs; assay type: ADME, organism-based; conditions: in vivo
[6] = Half life in CD1 mouse plasma at 0.3 mg/kg, iv measured upto 8 hrs; assay type: ADME, organism-based
[7] = AUCinfinity in CD1 mouse at 10 mg/kg, po measured upto 24 hrs; assay type: ADME, organism-based; design: route oral, dose 10 mg/kg, time <=24; conditions: in vivo
[8] = Oral bioavailability in CD1 mouse at 10 mg/kg measured upto 24 hrs; assay type: ADME, organism-based; conditions: in vivo

CLint scaled [1] [mL/min/kg] | solubility kinetic [2] [µM] | CLint scaled [3] [mL/min/kg] | solubility kinetic [4] [µM] | CL free [5] [mL/min/kg] | half-life [6] [h] | AUC(0-inf) [7] [µM·h] | bioavailability [8] [%] | SMILES
5.8 | 7 (≈ 2.89 µg/mL) | 12 | 296 (≈ 122 µg/mL) |  |  |  |  | CN(C)c1noc(-c2cccc(CNc3ccc4[nH]nc(C(=O)O)c4c3)c2Cl)n1
10 | 97 (≈ 39.6 µg/mL) | 8 | 102 (≈ 41.7 µg/mL) |  |  |  |  | CC(C)c1csc(-c2cccc(CNc3ccc4[nH]nc(C(=O)O)c4c3)c2O)n1
6.9 | 0.4 (≈ 0.158 µg/mL) | 28.6 | 157 (≈ 61.9 µg/mL) | 447 | 1.8 | 11.2 | 6 | CN(C)c1noc(-c2cccc(CNc3ccc4[nH]nc(C(=O)O)c4c3)c2O)n1
14 | 16 (≈ 6.53 µg/mL) | 46 | 135 (≈ 55.1 µg/mL) | 2444 | 3.3 | 6.8 | 4 | CN(C)c1noc(-c2cccc(CN(C)c3ccc4[nH]nc(C(=O)O)c4c3)c2O)n1
21 | 20 (≈ 7.89 µg/mL) | 15 | 15 (≈ 5.92 µg/mL) | 4500 | 3.3 | 46.1 | 19 | Cc1nc(-c2cccc(CNc3ccc4[nH]nc(C(=O)O)c4c3)c2O)sc1C
 | 175 (≈ 73.9 µg/mL) | 13 | 6 (≈ 2.54 µg/mL) |  |  |  |  | CC(C)c1csc(-c2cccc(CN(C)c3ccc4[nH]nc(C(=O)O)c4c3)c2O)n1
2.4 | 11 (≈ 4.33 µg/mL) | 38.1 | 227 (≈ 89.3 µg/mL) | 5436 | 0.4 | 0.46 | 2 | CC(C)c1noc(-c2cccc(CNc3ccc4[nH]nc(C(=O)O)c4c3)c2O)n1
55.5 | 0.53 (≈ 0.187 µg/mL) | 1210 | 0.59 (≈ 0.208 µg/mL) |  |  |  |  | CN(C)c1noc(-c2cccc(CNc3cnc4nn[nH]c4c3)c2O)n1
 | 4 (≈ 1.57 µg/mL) | 84 | 229 (≈ 89.9 µg/mL) |  |  |  |  | CC(C)c1coc(-c2cccc(CNc3ccc4[nH]nc(C(=O)O)c4c3)c2O)n1
 | 276 (≈ 108 µg/mL) | 45 | 254 (≈ 99.7 µg/mL) |  |  |  |  | Cc1nc(-c2cccc(CN(C)c3ccc4[nH]nc(C(=O)O)c4c3)c2)sc1C
0.5 | 308 (≈ 117 µg/mL) | 2.9 | 255 (≈ 96.5 µg/mL) |  |  |  |  | CN(C)c1noc(-c2cccc(CNc3ccc4[nH]nc(C(=O)O)c4c3)c2)n1
 | 5 (≈ 1.9 µg/mL) | 34 | 44 (≈ 16.7 µg/mL) |  |  |  |  | Cc1csc(-c2cccc(CNc3ccc4[nH]nc(C(=O)O)c4c3)c2O)n1
